Measured values from US9937227B2, “Humanin, analogs and cancer treatment methods and uses thereof” (LOS ANGELES BIOMEDICAL RESEARCH INSTITUTE AT HARBOR-UCLA …, priority 2014, dated 2018).
Read-outs that look alike come from different tables or passages of the source.

Assays:
IGF-1 = assay: Plasma IGF-1 in mice bearing metastatic lung melanomas; format: in vivo, mouse; conditions: 14 days; HNG 5 mg/kg/day IP, CP 200 mg/kg IP single injection
From the text: These preliminary data support a concept that HN is a caloric restriction mimetic, and its cytotoxic effects in cancer may be mediated by lowering IGF-1 without increasing GH and insulin.

germ cells = conditions: HNG 5 mg/kg/BW IP or CP 200 mg/kg/BW IP, 24 hours
Description: To examine the protective effects of HNG on germ cells, adult mice were treated with vehicle (control); HNG (5 mg/kg/BW, intraperitoneal injection IP); CP (200 mg/kg/BW, IP); and CP+HNG for 24 hours.

male germ cells [1] = conditions: 24 hours
Description: Young adult mice (12-13 weeks) were randomly divided into 4 groups with 4 or 5 mice per group and received an IP injection: control (Con) (saline), HN (40 mg/Kg BW), CP (200 mg/Kg BW), and the combination of CP+HN. These experiments were repeated four times. In the CP+HN group, mice received an injection of HN followed by an injection of CP about 15 minutes later. Twenty-four hours after injections animals were sacrificed using 5% pentobarbital (200 mg/kg BW) IP injection. Blood was collected and one testis was removed, weighed and frozen in liquid nitrogen. The mouse was next perfused with saline and then subsequently perfuse-fixed with Bouin's solution as previously described and apoptosis was assessed by TUNEL assay (Lue, et al., 2009).
For detection of apoptosis in testicular sections, the paraffin embedded testis tissue was cut into 5 micron sections and stained with the TdT-mediated dUTP nick-end labeling assay (TUNEL Apoptosis Detection Kit, Millipore, Billerica, Mass.) to detect apoptosis of germ cells in the testis (Lue, et al., 2009). Testicular sections assayed by TUNEL were examined under a light microscope and the apoptotic germ cells were blindly and manually counted. The seminiferous tubules in the testis section under the microscope were grouped as stages IX-IV (early-late stages of spermatogenesis) and V-VIII (middle stages of spermatogenesis). Germ cell apoptosis was quantified as the number of seminiferous tubules containing apoptotic spermatogonia, spermatoctyes, round spermatids and spermatozoa per 100 seminiferous tubules (Drumond, et al., 2011).

male germ cells [2] = system: male germ cells
sperm output = assay: Cauda epididymal sperm count after multiple doses of CP; format: in vivo, mouse; conditions: 28 days; HNG 10 mg/kg BW daily SC; CP 150 mg/kg BW IP, 6 doses at 5-day intervals
Description: The objective of this study was to investigate whether HNG has protective effect on sperm output after multiple doses of CP in mice. Thirty adult male mice (C57BL/6J) were randomized into 4 groups: 1) 5 as control; 2) 5 received daily subcutaneously injection of HNG (10 mg/kg BW); 3) 10 were given 6 doses of CP (150 mg/kg BW) intraperitoneally at 5-day intervals; 4) 10 received both HNG and CP. All mice were killed at 28 days. Plasma HNG and IGF-1 levels were measured by ELISAs. The cauda epididymal sperm count was performed using a hemocytometer.

[3] = system: B16 murine melanoma cells; assay: Metastatic lung tumors in mouse B16 melanoma model (Experiments 3 and 4); format: in vivo
Description: A total of 25 young adult mice (10-12 weeks) were randomly divided into 5 groups (n=5 per group). Five mice were used as control. Twenty mice were inoculated intravenously with B16 murine melanoma cells (2×10^5 cells/mouse). Among these 20 tumor-inoculated mice, 5 mice received no further treatment. After one week, the remaining 15 mice were divided into 3 groups and injected with: 1) HNG daily IP (5 mg/Kg body weight) for 2 weeks; 2) CP (200 mg/Kg body weight IP single injection); 3) combined CP with HNG treatment (same doses as above). All mice were sacrificed 3 weeks after tumor inoculation, and 2 weeks after HNG and/or CP treatment. The animals were sacrificed with 5% pentobarbital (200 mg/kg body weight) IP injection after which blood was collected from the right atrium of the heart. One of the testes from each mouse was immersed fixed in Bouin's solution, and the mice were perfused with saline and subsequently perfuse-fixed with 5% glutaraldehyde in 0.05 M cacodylate buffer (pH 7.4). The lungs were dissected out and post fixed in 5% glutaraldehyde solution for 24 hours and stored in cacodylate buffer at 4° C. for the subsequent tumor count (Lue, et al., 2010; Lue, et al., 2009).
Experiment 3 was repeated after inoculation of B16 melanoma tumor at week 1 and then treated with the following treatment starting at week 2 (n=5 mice per group): 1). No treatment; 2). HNG IP injections 5 mg/Kg daily; 3) CP 200 mg/Kg single IP injection; 4) HNG 5 mg/Kg/day+CP; 5). HNG IP injections 15 mg/Kg daily; and 6). HNG 15 mg/Kg/day+CP. All animals were euthanized and perfused with 4% paraformaldehyde at the end of week 3. Lungs and testes were collected and processed as in experiment 3. Methods
B16 melanoma tumors in the lung were quantified by counting the number of tumors on the surface of the lungs under stereomicroscopy (Collisson, et al., 2003; Craft, et al., 2005). The size of the tumor was measured using histomorphometry and expressed as average size of tumor. The appearance of the melanoma cells were reviewed and characterized by an expert pathologist.

testosterone = conditions: with or without EDS pre-treatment

Structure (SMILES): O=P1(N(CCCl)CCCl)NCCCO1 (centres unmarked) [CP, cyclophosphamide monohydrate]
- plasma IGF-1 levels (IGF-1): modestly suppressed
- germ cell apoptosis vs control (germ cells): significantly increased
- germ cell apoptosis compared to control (male germ cells [1]; early-late stages of spermatogenesis, CP 200 mg/Kg IP): significantly increased germ cell apoptosis
- germ cell apoptosis compared to control (male germ cells [1]; middle stages (V-VIII), CP 200 mg/Kg IP): significant increase in apoptosis
- germ cell apoptosis compared to control (male germ cells [1]; testicular cross sections, HN 40 mg/Kg or CP 200 mg/Kg single IP): significantly increased germ cell apoptosis
- germ cell apoptosis compared to control (male germ cells [2]; early (I-VI) and late (IX-XIV) stages, EDS pre-treated): did not significantly increased
- germ cell apoptosis compared to control (male germ cells [2]; early (I-VI) and late (IX-XIV) stages, no EDS, CP 70 mg/kg BW IP, 12 hours): significantly increased
- CP induced germ cell apoptosis in EDS pre-treated rats vs without EDS (male germ cells [2]; early and late stages): significantly lower
- germ cell apoptosis compared to control (male germ cells [2]; middle (VII-VIII) stages, no EDS, CP 70 mg/kg BW): did not increase
- epididymal sperm counts (sperm output): 0.5±0.1 ×10^6/mg
- number of metastatic tumors on the surface of the lungs vs non-treated tumor-bearing mice ([3]; Experiment 3, HNG 5 mg/Kg daily IP 2 weeks or CP 200 mg/Kg single IP): decreased number of tumors
- size of the melanoma metastasis on the surface of the lungs ([3]; Experiment 3, HNG 5 mg/Kg daily or CP 200 mg/Kg single IP): decreased number of tumors but also tumor size
- number of lung tumors vs non-treated tumor-bearing mice ([3]; Experiment 4, HNG 5 mg/kg BW daily or CP 200 mg/Kg single IP): significantly decreased both the number and size of the tumors
- size of the lung tumors vs non-treated ([3]; Experiment 4, HNG 5 and 15 mg/kg BW, CP 200 mg/Kg): significantly decreased both the number and size of the tumors
- lung metastatic melanoma histology (differentiation of melanoma cells) ([3]; HNG 5 mg/kg BW, CP, or combination): minor differentiation
- intratesticular testosterone levels (testosterone): no significant effects
- serum testosterone levels (testosterone): no significant effects
